The nature of this series: Phase 1 study: pharmacokinetic analysis of plasma (LC-MS/MS). The series is classed as in vivo, patients. The settings on record: in vivo. As to the method: Pharmacokinetic analysis: Whole-blood samples for plasma were collected at prescheduled time points for pharmacokinetic (PK) analysis. Plasma levels of erlotinib were determined using a validated liquid chromatography-tandem mass spectrometry assay. […] MS detection was using an AB SCIEX API 4000 triple quadrupole mass spectrometer operating in positive ion electrospray ionization (ESI) mode. Standard PK parameters were calculated using a noncompartmental method (WiNNonlin, Pharsight).

For `C#Cc1cccc(Nc2ncnc3cc(OCCOC)c(OCCO)cc23)c1` [OSI-420], the “dose-dependence of metabolite with increasing pulse doses of erlotinib” value is “no significant dose-dependence”.

Source of the values: patent US11833149B2, “Pulse dosing regimen and methods of treatment” (OSI Pharmaceuticals, LLC, priority 2016, dated 2023).
